According to PMC5037475, “The Dinoflagellate Toxin 20-Methyl Spirolide-G Potently Blocks Skeletal Muscle and Neuronal Nicotinic Acetylcholine Receptors” (Toxins, 2016):
“Also recorded” adds a separate entry of the source. Read-outs that look alike come from different tables or passages of the source.

What was measured:
[1] = acyclic aminoketone spirolides; cited from earlier work
[2] = target: Torpedo muscle-type α1_2β1γδ nAChR; conditions: previously reported; cited from earlier work
[3] = target: Torpedo muscle-type α1_(2)β1γδ nicotinic acetylcholine receptor (Torpedo marmorata (endogenous in electric organ)) (UniProt P02711); assay: radioligand binding
[4] = test system: mouse neuromuscular system; conditions: local injection, mice; cited from earlier work
[5] = test system: isolated mouse extensor digitorum longus (EDL) neuromuscular preparations, endowed with the α1_2βδε nAChR; assay: Nerve-evoked isometric twitch tension on isolated mouse EDL nerve-muscle preparations
Description: The onset of the contraction block was rapid at high 20-meSPX-G concentration, with a complete block of the twitch response within 60 min at concentrations above 10 nM.
Figure 2 (A) Nerve-evoked isometric twitch responses on isolated mouse extensor digitorum longus (EDL) before and after the action of 10 nM 20-meSPX-G; and (B) concentration-response curve for the action of 20-meSPX-G on nerve-evoked isometric twitch response. Data points represent the normalized twitch response, relative to the respective controls. Each point is the mean ± SEM of 4 nerve muscle preparations at 60 min toxin exposure.
Isometric twitch tension measurements were performed on isolated mouse EDL nerve-muscle preparations after rapid removal from euthanized animals. The isolated EDL nerve-muscle preparation was mounted in a silicone-lined bath perfused with a Krebs-Ringer solution of the following composition (in mM): NaCl 140, KCl 5, CaCl2 2, MgCl2 1, glucose 11, and HEPES 5 (pH 7.4), continuously perfused with pure O2 throughout the experiment. For muscle tension measurements, one of the muscle tendons was securely anchored onto the silicone-coated bath. The other tendon was attached to an isometric force displacement transducer (FT03, Grass Instruments, West Warwick, RI, USA) via an adjustable stainless-steel hook. Muscle twitches were induced either by motor nerve stimulation, or by direct electrical muscle stimulation with supramaximal 0.15 ms duration current pulses delivered by a stimulator (S-44 Grass Instruments), through an electrode assembly placed along the muscle length. The resting tension was monitored and kept constant for each tested preparation through a mobile micrometer stage. Signals from the force transducer were collected, and digitized with a Digidata-1322A A/D interface board (Axon Instruments, Union City, CA, USA), as previously reported.

[6] = test system: mouse neuromuscular system; assay: In vivo compound muscle action potential (CMAP) recording after local i.m. injection in anesthetized mice
Excerpt: Figure 3 Effects of i.m. local injections of 20-meSPX-G in vivo on the mouse neuromuscular system. (A) Compound muscle action potentials (CMAPs) recorded from the tail muscle in response to caudal motor nerve stimulation (increasing intensities, scheme), before and at various times after injection of the cyclic imine toxin (35 pg/mouse); (B) time-course of the effects of 20-meSPX-G injections (1.75, 35 and 350.5 pg/mouse) on the CMAP maximal amplitude. Arrows indicate the time of injections; and (C) dose-response curve of the effects of 20-meSPX-G injections on the maximal CMAP amplitude. Each value represents the mean ± SEM of data obtained from 4–6 mice, and is expressed relatively to that obtained before injections. The sigmoid curve was obtained by nonlinear regression analysis through data points (R^2 ≥ 0.99). The 20-meSPX-G dose required to block 50% of the maximal CMAP amplitude (dashed lines) was 47 pg/mouse.
In vivo recordings from the neuromuscular system were done in mice anesthetized by isoflurane inhalation, with a minimally-invasive electrophysiological method using Qtrac software (Institute of Neurology, Queen Square, London, UK, 2013), as previously described. In brief, electrical stimulations were delivered at a constant frequency of 1.25 Hz to the caudal motor nerve (at the base of the tail) with surface electrodes, and the compound muscle action potential (CMAP) was recorded using needle-electrodes inserted into the tail muscle. 20-me-SPX-G, diluted in phosphate buffer saline containing <1% methanol, was injected intramuscularly (i.m.), between stimulation and ground electrodes, in a single bolus of 1.25−5 µL with a micro-syringe (10 μL volume). Continuous on-line recordings were started around six minutes before injections to determine the toxin and/or solvent effects, as a function of time, on selected excitability parameters, such as the CMAP amplitude and excitability threshold.

[7] = test system: Torpedo muscle-type α1_2β1γδ nAChR; assay: Voltage-clamp recording of ACh-evoked currents in Xenopus oocytes microtransplanted with Torpedo nAChR; format: cell-based, Torpedo marmorata
Description: The fact that the amplitude of the ACh-evoked current was usually ≥1 µA (n = 6) was indicative of a good incorporation of the Torpedo muscle-type receptor into the oocyte membrane.
Torpedo marmorata fish were anaesthetized with 0.03% tricaine (Sigma-Aldrich, Saint Quentin Fallavier, France) in seawater, before surgical removal of electric organs. From sliced Torpedo electric organs, purified membranes enriched in the α1_2β1γδ nAChR were prepared at 4 °C in 5 mM glycine, using procedures described previously. Aliquots of the purified membranes were stored at –80 °C until use. Microtransplantation of Torpedo nAChR [39] consisted in a single microinjection of a membrane suspension (50 nL at 3.5 mg·mL^−1 protein) into the oocyte cytoplasm using a Nanoliter 2000 Micro4 Controller mounted on a microscope (World Precision Instruments, Inc., Hertfordshire, UK), as previously described.
Currents evoked by ACh were recorded with a two-microelectrode voltage-clamp amplifier (OC-725B, Warner Instrument Corp., Hamden, CT, USA) at −60 mV holding potential. Micro-electrodes had 0.5–1.5 MΩ tip resistances. A pCLAMP-9/Digidata-1322A system (Molecular Devices, Union City, CA, USA) was used for data recording. […]

[8] = target: T1, human α7 nAChR (Homo sapiens, UniProt P36544); assay: Voltage-clamp recording of ACh-evoked currents in Xenopus oocytes expressing human α7 nAChR; format: cell-based; conditions: ACh 350 μM (EC50), 3 s, −60 mV; read-out: IC50, inhibition of ACh-evoked current
T1 construct: expressed in transfected cells; host or cells: Xenopus laevis oocytes
Description: Functional analysis of the action of 20-meSPX-G was also performed using voltage-clamp recordings in Xenopus oocytes previously transfected with human α7 or α4β2-encoding cDNAs.
Oocytes were obtained under anesthesia (ethyl-3-amino benzoate methanesulfonate salt solution (1 g·L^−1, Sigma-Aldrich, Saint Quentin Fallavier, France) from mature female Xenopus laevis frogs. Oocytes were recovered and placed in a medium containing no added calcium and containing (in mM): NaCl, 88; KCl, 2.5; MgCl2, 1; and HEPES, 5 (pH 7.6). After extensive washing with this solution, oocytes were transferred to a Barth’s solution containing (in mM): NaCl, 88; KCl, 1; MgSO4, 0.33; CaCl2, 0.41; MgSO4, 0.82; Ca(NO3)2, 0.33; NaHCO3, 2.4; and HEPES, 10 (pH = 7.2) supplemented with kanamycine 0.1 mg·mL^−1. Oocytes (stage V–VI) were defolliculated (manually) and microinjected with 50 nL of human α7 mRNA (0.1 μg·μL^−1), or with a 50 nL mixture of plasmids carrying the cDNA of α4 and β2 (0.3 μg·μL^−1, each). For micro-injection a Nanoliter 2000 Micro4 Controller (World Precision Instruments, Inc., Hertfordshire, UK) was used. […]
Currents evoked by ACh were recorded with a two-microelectrode voltage-clamp amplifier (OC-725B, Warner Instrument Corp., Hamden, CT, USA) at −60 mV holding potential. […]

[9] = target: T2, human α4β2 nAChR (Homo sapiens, UniProt P17787+P43681); assay: Voltage-clamp recording of ACh-evoked currents in Xenopus oocytes expressing human α4β2 nAChR; format: cell-based; conditions: ACh 150 μM (EC50), −60 mV; read-out: IC50, inhibition of ACh-evoked current
Excerpt: Oocytes were obtained under anesthesia (ethyl-3-amino benzoate methanesulfonate salt solution (1 g·L^−1, Sigma-Aldrich, Saint Quentin Fallavier, France) from mature female Xenopus laevis frogs. Oocytes were recovered and placed in a medium containing no added calcium and containing (in mM): NaCl, 88; KCl, 2.5; MgCl2, 1; and HEPES, 5 (pH 7.6). After extensive washing with this solution, oocytes were transferred to a Barth’s solution containing (in mM): NaCl, 88; KCl, 1; MgSO4, 0.33; CaCl2, 0.41; MgSO4, 0.82; Ca(NO3)2, 0.33; NaHCO3, 2.4; and HEPES, 10 (pH = 7.2) supplemented with kanamycine 0.1 mg·mL^−1. Oocytes (stage V–VI) were defolliculated (manually) and microinjected with 50 nL of human α7 mRNA (0.1 μg·μL^−1), or with a 50 nL mixture of plasmids carrying the cDNA of α4 and β2 (0.3 μg·μL^−1, each). For micro-injection a Nanoliter 2000 Micro4 Controller (World Precision Instruments, Inc., Hertfordshire, UK) was used. Oocytes that were microinjected were incubated at 18 °C in Barth’s solution, and electrophysiological recordings were performed 3−4 days after microinjection.
Currents evoked by ACh were recorded with a two-microelectrode voltage-clamp amplifier (OC-725B, Warner Instrument Corp., Hamden, CT, USA) at −60 mV holding potential. Micro-electrodes had 0.5–1.5 MΩ tip resistances. […]

[10] = target: Torpedo muscle-type α1_2β1γδ nAChR; assay: Competition binding with [125I]α-BTX on Torpedo membranes; design: species or system Torpedo marmorata; conditions: for Ki: [125I]α-BTX, equilibrium 4 h, mean ± SEM
[11] = target: T3, chick chimeric α7-5HT3 nAChR (UniProt P22770+P23979, M226I/T225I); assay: Competition binding with [125I]α-BTX on HEK-293 cells expressing chimeric α7-5HT3 nAChR
T3 construct: expressed in transfected cells; host or cells: HEK-293

[12] = target: T4, human α3β2 nAChR (Homo sapiens, UniProt P17787+P32297); assay: Competition binding with [3H]epibatidine on HEK-293 cells expressing human α3β2 nAChR; conditions: 4 h, mean ± SEM
T4 construct: expressed in transfected cells; host or cells: HEK-293

[13] = test system: mouse; conditions: cited from earlier work; for LD50: mouse
[14] = target: T2, human α4β2 nAChR; assay: Competition binding with [3H]epibatidine on HEK-293 cells expressing human α4β2 nAChR; design: expressed in transfected cells; host or cells: HEK-293
[15] = i.m. injection, anesthetized mice, corresponding to 47 pg/mouse

## C=C(CCCC(=O)C1(CCC(C)CN)CCC(C2C=C(C)C(=O)O2)=C(C)C1/C=C(\C)C(O)CC)CC1CCC(C)(O)C2(CCC3(CC(C)CO3)O2)O1 (stereo not drawn) [spirolide E]
[1]
  toxicity: no toxicity

## spirolide F
[1]
  toxicity: no toxicity

## C=C1CCCC2=NC[C@H](C)[C@@H](C)C[C@@]23CCC(C(=O)O)=C[C@@H]3[C@@H]2O[C@]3(C[C@H]4CCC[C@@]5(CC[C@@]6(O[C@@H](CC[C@@]6(C)O)C1)O5)O4)C[C@@H](C)[C@@H](O)[C@H]2O3 [pinnatoxin A]
[2]
  Ki: 2.8 nM

## α-toxin from Naja nigricollis (from UniProt P01426 1-61) (natural protein)
[3]
  Ki: 0.011 nM

## C=C1CCCC2=NC[C@H](C)[C@@H](C)C[C@@]23CCC([C@@H]2C=C(C)C(=O)O2)=C(C)[C@@H]3/C=C(\C)[C@@H](O)C[C@@H]2CC[C@@]3(CC[C@@]4(O[C@@H](CC[C@@]4(C)O)C1)O3)O2 [13-desmethyl spirolide C]
[4]
  IC50, reduction of CMAP amplitude in vivo: 6 ng/kg
[2]
  Ki: 0.08 nM

## COc1cc2c3cc1Oc1cc(ccc1O)C[C@@H]1c4c(cc(OC)c(O)c4Oc4ccc(cc4)C[C@@H]3N(C)CC2)CC[N+]1(C)C [d-tubocurarine, reference compound]
[5]; comparison with literature value
  fold higher concentration needed for a similar degree of neuromuscular blockade (IC50) compared with 20-meSPX-G: 75 fold

## 20-methyl spirolide G [20-meSPX-G]
[5]; continuous wash-out for 30 min with spirolide-free medium
  reversal of neuromuscular transmission block by wash-out: not completely reversed
[5]; isolated mouse EDL, 60 min toxin exposure, read-out: IC50, block of nerve-evoked muscle contractions
  IC50: 4.8 nM
[5]; nerve-evoked isometric twitch, isolated mouse EDL
  concentration giving complete block of the twitch response within 60 min: above 10 nM
[5]; when nerve-evoked twitch was blocked (10 nM)
  effect on contractions elicited by direct electrical muscle stimulation: lack of a direct effect; also recorded: no action
[6]; 1.75 pg/mouse i.m.
  onset of the effect on CMAP amplitude: 15.8 ± 1.9 min
[6]; 1.75 pg/mouse i.m., mean
  block of CMAP amplitude: 9%
[6]; 350.5 pg/mouse i.m.
  block of CMAP amplitude: 91%
  onset of the effect on CMAP amplitude: 7.7 ± 2.1 min
[6]; 35–87.6 pg/mouse i.m.
  CMAP maximal amplitude after spontaneous recovery, relative to controls: 78.5%
  time for CMAP maximal amplitude to return to 78.5% of controls: ≤ 53.3 ± 19.6 min
[6]; i.m. injection, anesthetized mice
  ED50, dose required to block 50% of the maximal CMAP amplitude: 47 pg/mouse
[6]; [15]
  ED50 (also called IC50), block of maximal CMAP amplitude: 1.7 ng/kg
  ED50, block of maximal CMAP amplitude: 2.4 pmol/kg
[7]; 3.1 nM toxin applied alone, −60 mV
  agonist action: no agonist action
[7]; ACh 25 µM (EC50), −60 mV holding potential, read-out: IC50, inhibition of ACh-evoked current
  IC50: 0.36 nM
[8]
  IC50: 0.48 nM
[9]
  IC50: 2.1 nM
[10]
  Ki: 0.028 ± 0.005 nM
[10]; from Ki values of Table 1
  fold lower affinity than α-toxin from Naja nigricollis: about 2.5 fold
[11]; [125I]α-BTX, HEK-293 cells, mean ± SEM
  Ki: 0.11 ± 0.08 nM
[11]; α7 / chimeric α7-5HT3, from Ki values
  times more active than MLA: about 7.5 times
[12]
  Ki: 0.04 ± 0.001 nM
[13]; mice, i.p. administration of 0.063 mg·kg^−1
  lethality: absence of lethality
[13]; by feeding
  LD50: 0.630 mg/kg
[13]; intraperitoneal (i.p.) injection
  LD50: 0.008 mg/kg
[13]; orally by gavage
  LD50: 0.160 mg/kg
[14]; [3H]epibatidine competition binding
  fold lower affinity in human α4β2 than in human α3β2 nAChR: 90 fold
[14]; [3H]epibatidine, HEK-293 cells, 4 h, mean ± SEM
  Ki: 3.6 ± 0.07 nM

B1: α-Toxin (snake): α-toxin from Naja nigricollis, a short-chain curaremimetic toxin (61 residues and four disulfides), synthesized (protein)
chain: LECHNQQSSQPPTTKTCPGETNCYKKVWRDHRGTIIERGCGCPTVKPGIKLNCCTTDKCNN
modifications: disulfide (positions not given here)
notes: α-toxin from Naja nigricollis, a short-chain curaremimetic toxin (61 residues and four disulfides), synthesized
[10]
  Ki: 0.011 ± 0.002 nM
